This note sets out measurements from patent publication US10766855B2, “Hydroxamate triterpenoid derivatives” (VIVACELL BIOTECHNOLOGY ESPANA S.L., priority 2016, dated 2020).

What all share (format): cell-based
One assay has as its system TGR5. Put plainly: TGR5 activation in CHO-TGR5-CRE-Luc cells. The following applies: for pEC50: 6 h.
The test system of another assay is NF-κB. The experiment in a line: NF-κB inhibition in NIH-3T3-KBF-Luc cells stimulated with TNFα. The following applies: for pIC50: TNFα 30 ng/ml, 6 h. How it is done:
To further study the target selectivity of the compounds described in the present invention the effect of the natural triterpenoids (OA; BA, UA, and MA), compounds II to XV of Formula (I) disclosed in present invention, and of comparative compound CDDO-Me on NF-κB inhibition, STAT-3 inhibition, Nrf2 activation and TGR5 activation was analyzed. For this study cell lines NIH-3T3-KBF-Luc, HeLa-STAT3-Luc, HaCaT-ARE-Luc and CHO-TGR5-CRE-luc were used respectively. The NIH3T3-KBF-Luc cell line stably transfected with the plasmid KBF-Luc plasmid, which contains three copies of NF-κB binding site (from major histocompatibility complex promoter), fused to a minimal simian virus 40 promoter driving the luciferase gene. Cells (1×10^4/well) were seeded in 96-well plates, treated with increasing concentrations of the compounds II to XV for 15 min and then stimulated with 30 ng/ml TNFα. After 6 h the luciferase activity in the cell lysates was measured as indicated above.

The next assay has as its system HIF-1α. Put plainly: HIF-1α transactivation assay in NIH-3T3-EPO-Luc fibroblast cells. The following applies: for pEC50 / Efficacy HIF-1α (IRA coefficient): 6 h stimulation; for pEC50: read-out: Potency EC50 HIF-1α; for Efficacy HIF-1α (IRA coefficient): relative to 150 μM DFX. How it is done:
To investigate the biological activities of the different compounds, HIF-1α transactivation assays were performed either in NIH-3T3-EPO-Luc cells (Table II) or in HaCaT-EPO-luc cells (FIG. 2). The NIH3T3-EPO-luc and HaCaT-EPO-luc cells have been stably transfected with the plasmid Epo-Luc plasmid. The EPO-Hypoxia Response Element (HRE)-luciferase reporter plasmid contains three copies of the HRE consensus sequence from the promoter of the erythropoietin gene fused to the luciferase gene. NIH3T3-EPO-luc cells were maintained at 37° C. in a humidified atmosphere containing 5% CO2 in DMEM supplemented with 10% fetal calf serum (FBS), and 1% (v/v) penicillin/streptomycin. DFX was purchased from Sigma-Aldrich (USA). Cells (1×10^4/well in 96 well plates) were seeded the day before the assay. […] After six hours of stimulation the cells were lysed in 25 mM Tris-phosphate pH 7.8, 8 mM MgCl2, 1 mM DTT, 1% Triton X-100, and 7% glycerol during 15 min at RT in a horizontal shaker. Luciferase activity is measured using a microplate luminometer (Berthold) following the instructions of the luciferase assay kit (Promega, Madison, Wis., USA).

The test system of assay [1] is Nrf2. The experiment in a line: Nrf2 activation/inhibition in HaCaT-ARE-Luc cells.
The test system of assay [2] is Nrf2. Put plainly: Nrf2 activation/inhibition in HaCaT-ARE-Luc cells. The following applies: for pEC50: 6 h. How it is done: (§1) The HeLa-STAT3-luc cells stably transfected with the plasmid 4×M67 pTATA TK-Luc. Cells (20×10^3 cells/ml) were seeded in 96-well plates, treated with increasing concentrations of the compounds II to XIV, and of comparative compound CDDO-Me, for 15 min and then stimulated with IFN-γ 25 IU/ml. After 6 h the luciferase activity in the cell lysates was measured as indicated above. […] The HaCaT-ARE-Luc cell line contains the Nqo1 Antioxidant Response Element (ARE)-Luc reporter plasmid. ARE is activated by all members of the CNC family of factors (Nrf1, Nrf2, Nrf3 and p45 NF-E2). The cells were cultivated in 96-well plates at the concentration of 25×10^3 cells/well in a CO2 incubator at 37° C. For induction of Nrf2 activation the cells were treated with increasing concentrations of the compounds II to XV, and of comparative compound CDDO-Me, for 6 h. As a positive control the cells were treated with 0.02 mM of the antioxidant Tert-butyl-hydroquinone (TBHQ). Luciferase activity in the cell lysates was measured as indicated above and the EC50 calculated (Table III). The CHO-TGR5-CRE-Luc cells stably transfected with the pTGR5 and CRE-Luc. The CRE-responsive luciferase construct encodes the firefly luciferase reporter gene under the control of a minimal (m)CMV promoter and tandem repeats of the CRE transcriptional response element (TRE) and is useful to monitor cAMP signaling pathways activated by TGR5 agonists. Cells (1×10^4/well) were seeded in 96-well plates, treated with increasing concentrations of the compounds II to XV and CDDO-Me, for 6 h. As a positive control the cells were treated with 10 μM of LCA (lithocholic acid). Luciferase activity in the cell lysates was measured as indicated above and the EC50 calculated (Table III).

For a further assay, the system named is STAT3. Put plainly: STAT3 inhibition in HeLa-STAT3-Luc cells stimulated with IFN-γ. The following applies: for pIC50: IFN-γ 25 IU/ml, 6 h. How it is done:
as §1

pEC50, pIC50: −log10 of the molar value. Where two headings read alike, the source gives them in different places.

Method for TGR5: The CHO-TGR5-CRE-Luc cells stably transfected with the pTGR5 and CRE-Luc. […] As a positive control the cells were treated with 10 μM of LCA (lithocholic acid). Luciferase activity in the cell lysates was measured as indicated above and the EC50 calculated (Table III).

As to `C=C(C)[C@@H]1CC[C@]2(C(=O)O)CC[C@]3(C)[C@H](CC[C@@H]4[C@@]5(C)CC[C@H](O)C(C)(C)[C@@H]5CC[C@]43C)[C@@H]12` [Betulinic acid, reference compound], the values for the pEC50 in the assay with TGR5, in the assay with HIF-1α (Fibroblast) and in the assay with Nrf2 [2] were 4.65, less than 4.30 and 5.04, respectively. The pIC50 in the assay on NF-κB, in the assay with Nrf2 [1] and in the assay with STAT3 was less than 4.30 throughout.

As for `COC(=O)[C@]12CCC(C)(C)C[C@H]1[C@H]1C(=O)C=C3[C@@]4(C)C=C(C#N)C(=O)C(C)(C)[C@@H]4CC[C@@]3(C)[C@]1(C)CC2` [CDDO—Me, 2-Cyano-3,12-dioxo-oleana-1,9(11)-dien-28-oic acid methyl ester, reference compound], the pEC50 in the assay with TGR5 was less than 4.30; with HIF-1α (Fibroblast), less than 4.30; with Nrf2 [2] it was 4.39. Also, the “inhibition of the NF-κB pathway induced by TNFα (in words)” value in the assay on NF-κB is on record as “clearly inhibited”. Moreover, the pIC50 with NF-κB was 5.92; in the assay on Nrf2 [1], 7.22; in the assay on STAT3 it was 5.62. Besides, the “activation of the EPO promoter as a surrogate marker of HIF-1α pathway activation (in words)” value (shortened to “activation of the EPO promoter”) in the assay on HIF-1α is on record as “does not result in activation of the HIF pathway”. The “activation of the Nrf2 pathway (in words)” value in the assay on Nrf2 [2] is “activated the Nrf2 pathway”. In addition, the “inhibition of the STAT3 pathway induced by IFNγ (in words)” value in the assay with STAT3 was “clearly inhibited”.

On to `CC1(C)CC[C@]2(C(=O)NO)CC[C@]3(C)C(=CC[C@@H]4[C@@]5(C)CC[C@H](O)C(C)(C)[C@@H]5CC[C@]43C)[C@@H]2C1` [Compound II, (3β) 3-Hydroxy-N-hydroxy-olean-12-en-28-amide], for which the figures for the negative logarithm of the EC50 (pEC50) with TGR5, in the assay with HIF-1α (Fibroblast) and in the assay on Nrf2 [2] were less than 4.30, 4.79 and less than 4.30, respectively. Besides, the negative-log IC50 (pIC50) in the assay with NF-κB, in the assay on Nrf2 [1] and in the assay with STAT3 was less than 4.30 in each case. In addition, in the assay on HIF-1α, the “Efficacy HIF-1α (IRA coefficient)” value turned out to be 0.39.

Regarding `CC1(C)CC[C@]2(C(=O)NO)CC[C@]3(C)C(=CC[C@@H]4[C@@]5(C)CC/C(=N\O)C(C)(C)[C@@H]5CC[C@]43C)[C@@H]2C1` [Compound III, 3-Hydroxyimino-N-hydroxy-olean-12-en-28-amide], the pEC50 with TGR5 was less than 4.30; with HIF-1α (Fibroblast), 5.42; with Nrf2 [2], 4.62. The pIC50 in the assay on NF-κB, in the assay with Nrf2 [1] and in the assay with STAT3 was less than 4.30 each time. In addition, the “Efficacy HIF-1α (IRA coefficient)” value in the assay on HIF-1α is 0.43.

Turning to `CC1(C)CC[C@]2(C(=O)NO)CC[C@]3(C)C(=CC(=O)[C@@H]4[C@@]5(C)CC[C@H](O)C(C)(C)[C@@H]5CC[C@]43C)[C@@H]2C1` [Compound IV, (3β) 3-Hydroxy-11-oxo-olean-12-en-N-hydroxy-28-amide], the pEC50 with TGR5 was less than 4.30; with HIF-1α (Fibroblast), 4.94; in the assay on Nrf2 [2] it was 5.00. Further, the pIC50 in the assay with NF-κB, with Nrf2 [1] and in the assay on STAT3 was less than 4.30 throughout. The “Efficacy HIF-1α (IRA coefficient)” value with HIF-1α is given as 0.15.

For `C=C(C)[C@@H]1CC[C@]2(C(=O)NO)CC[C@]3(C)[C@H](CC[C@@H]4[C@@]5(C)Cc6cn[nH]c6C(C)(C)[C@@H]5CC[C@]43C)[C@@H]12` [Compound IX, 1′H-Lup-20(29)-eno[3,2-c]pyrazol-N-hydroxy-28-amide], the “Efficacy HIF-1α (IRA coefficient)” value in the assay with HIF-1α was determined as 0.34. Besides, the pEC50 with HIF-1α (Fibroblast) was 5.62.

In the case of `CC(=O)O[C@H]1CC[C@]2(C)[C@H]3C(=O)C=C4[C@@H]5CC(C)(C)CC[C@]5(C(=O)NO)CC[C@@]4(C)[C@]3(C)CC[C@H]2C1(C)C` [Compound V, (3β) 3-Acetyloxy-11-oxo-olean-12-en-N-hydroxy-28-amide], the pEC50 in the assay with TGR5 was less than 4.30; in the assay on HIF-1α (Fibroblast), 5.17; in the assay on Nrf2 [2], less than 4.30. Besides, the pIC50 in the assay on NF-κB, in the assay with Nrf2 [1] and in the assay with STAT3 was less than 4.30 throughout. In addition, the “Efficacy HIF-1α (IRA coefficient)” value in the assay on HIF-1α was 0.16.

Turning to `CC1(C)CC[C@]2(C(=O)NO)CC[C@]3(C)C(=CC[C@@H]4[C@@]5(C)CC=CC(C)(C)[C@@H]5CC[C@]43C)[C@@H]2C1` [Compound VI, Oleana-2,12-dien-N-hydroxy-28-amide], the pEC50 was less than 4.30 in the assay with TGR5, 5.30 with HIF-1α and less than 4.30 with Nrf2 [2]. Besides, the pIC50 in the assay on NF-κB, with Nrf2 [1] and with STAT3 was less than 4.30 in each case. The “Efficacy HIF-1α (IRA coefficient)” value in the assay with HIF-1α was found to be 0.16.

In the case of `C=C(C)[C@@H]1CC[C@]2(C(=O)NO)CC[C@]3(C)[C@H](CC[C@@H]4[C@@]5(C)Cc6cnoc6C(C)(C)[C@@H]5CC[C@]43C)[C@@H]12` [Compound VIII, Lup-2-eno[2,3-d]isoxazol-N-hydroxy-28-amide], the “agonistic TGR5 activity (in words)” value with TGR5 is “showed agonistic TGR5 activity”. Moreover, the pEC50 in the assay with TGR5 is 5.02; in the assay on HIF-1α (Fibroblast) it was 5.59; in the assay on Nrf2 [2], less than 4.30. Also, the pIC50 in the assay on NF-κB, in the assay on Nrf2 [1] and with STAT3 was less than 4.30 in each case. For the same molecule, the “Efficacy HIF-1α (IRA coefficient)” value in the assay with HIF-1α was 0.55.

`C=C(C)[C@@H]1CC[C@]2(C(=O)NO)CC[C@]3(C)[C@H](CC[C@@H]4[C@@]5(C)CC=CC(C)(C)[C@@H]5CC[C@]43C)[C@@H]12` [Compound X, Lupa-2,20(29)-dien-N-hydroxy-28-amide]: the pEC50 with TGR5 is less than 4.30; in the assay on HIF-1α (Fibroblast) it was 5.49; in the assay on Nrf2 [2], less than 4.30. Besides, the pIC50 with NF-κB, with Nrf2 [1] and in the assay on STAT3 was less than 4.30 in each case. In the assay on HIF-1α, the “Efficacy HIF-1α (IRA coefficient)” value came to 0.48.

For `CC1(C)C2CC[C@]3(C)[C@H](C(=O)C=C4[C@H]5C[C@@](C)(C(=O)NO)CC[C@]5(C)CC[C@]43C)[C@@]2(C)CC[C@@H]1O` (stereo partly drawn) [Compound XX, reference compound], in the assay on HIF-1α, the “activation of the EPO promoter” value is “do not activate the HIF-1α pathway”. For the same molecule, the pEC50 with HIF-1α (Fibroblast) was less than 4.30.

For the molecule `CC1(C)[C@@H](O)CC[C@]2(C)[C@H]3C(=O)C=C4[C@@H]5C[C@@](C)(C(=O)O)CC[C@]5(C)CC[C@@]4(C)[C@]3(C)CC[C@@H]12` [Glycyrrethinic acid, reference compound], the “activation of the EPO promoter” value in the assay on HIF-1α is given as “do not activate the HIF-1α pathway”. For the same molecule, in the assay with HIF-1α (Fibroblast), the pEC50 is less than 4.30.

With `C[C@H]1[C@H](C)CC[C@]2(C(=O)O)CC[C@]3(C)C(=CC[C@@H]4[C@@]5(C)CC[C@H](O)C(C)(C)[C@@H]5CC[C@]43C)[C@H]12` [Ursolic acid, reference compound], the pIC50 in the assay on NF-κB, with Nrf2 [1] and in the assay with STAT3 was less than 4.30 in each case. Moreover, the “activation of the EPO promoter” value in the assay with HIF-1α is listed as “None of the natural triterpenoids”. For the same molecule, the negative-log EC50 (pEC50) in the assay with HIF-1α (Fibroblast) is less than 4.30; in the assay with Nrf2 [2] it was 4.42.

Broadly, the pEC50 is −log10 of the EC50, conventionally taken in molar units. What is called pIC50 is −log10 of the IC50, conventionally taken in molar units.
